These results are taken from PubChem BioAssay (NCI).

Structures are written as SMILES.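 Interpolation was linear, between the two tested concentrations surrounding the appropriate level; five concentrations were tested over 48 hours in 96-well plates. At the GI50, growth is halved. The concentration for full growth arrest is given as TGI.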

This assay has as its system MDA-MB-468 breast. As to the kind of experiment: NCI tumour cell line growth inhibition, 48 h.

On to `N=C1c2nc3n(c2C(=O)c2nc4n(c21)CCCC4)CCCC3`, for which the GI50 is 8950 nM and the TGI amounted to 53.4 µM.

As to `CC1(C)NCCC[C@]2(C)[C@H]3C=CC4=C5C[C@](C)(CO)CC[C@]5(C)CC[C@@]4(C)[C@]3(C)CC[C@@H]12`, the GI50 was 10400 nM and the TGI amounted to 24 µM.

`CC(=O)Nc1nc(SCc2ccccc2)c2ncn(C(C)=O)c2n1`: the GI50 was 24800 nM and the TGI was more than 100 µM.

On to `COc1ccc2c(c1)nc(N)c1c3cc(OC)c(OC)cc3cn21`, for which the GI50 was 33.9 nM and the TGI was found to be 12.5 µM.

In the case of `CCN1C(=O)N(CC)C2C1NN=c1s/c(=C3\C(=O)N(CC(C)C)c4ccccc43)c(=O)n12` (stereo not given), the GI50 was 351 nM and the TGI turned out to be 15.9 µM.

As to `O=C(Nc1ccc(-n2cc(-c3ccncc3)c(-c3ccc(Cl)c(O)c3)n2)cc1)Nc1cc(C(F)(F)F)cc(C(F)(F)F)c1`, the GI50 is 1790 nM and the TGI stood at 5.04 µM.

`Cc1cc(C)c(O)c(CNCCCCCCNCc2cc(C)cc(C)c2O)c1`: the GI50 is 1600 nM and the TGI turned out to be 3.12 µM.

With `c1ccc2[nH]c(SSc3nc4ncncc4[nH]3)nc2c1`, the GI50 was 232 nM and the TGI was more than 76.5 µM.

Turning to `O=C(NC1CC1)c1ccc(-c2nc3ccc4[nH]ncc4c3c3c2CCCC3)cc1`, the GI50 was 1500 nM and the TGI is 7.14 µM.

Turning to `CCC1=C[C@@H]2CN(C1)Cc1c([nH]c3ccccc13)[C@@](C(=O)OC)(c1cc3c(cc1OC)N(C=O)[C@H]1[C@@](O)(C(=O)OC)[C@H](OC(C)=O)[C@]4(CC)[C@@H]5C[C@@H]5CN5CC[C@]31[C@@H]54)C2`, the GI50 is less than 0.625 nM and the TGI is more than 6.25 µM.

Take `Fc1ccc(Oc2nccc(-c3c(-c4ccc(F)cc4)ncn3C3CCNCC3)n2)cc1`: the GI50 is 4700 nM and the TGI is more than 24 µM.

As to `CCCc1ccc(S(=O)(=O)N[C@H]2CC[C@H]3[C@@H]4CCc5cc(O)ccc5[C@H]4CC[C@]23C)cc1`, the GI50 was 2320 nM and the TGI was found to be 9.51 µM.

As to `c1ccc(C(=NNc2nc3ccccc3o2)c2ccccn2)nc1`, the GI50 was 28.5 nM and the TGI was 0.196 µM.

For the compound `O=[N+]([O-])c1ccc(-c2nc(N(CCO)CCO)c3ccccc3n2)o1`, the GI50 is 55.3 nM and the TGI came out at 0.195 µM.

`O=C(N/N=C\c1ccc(F)cc1)c1ccc2nc(-c3ccc(Br)cc3)[nH]c2c1`: the GI50 is 1980 nM and the TGI stood at 3.99 µM.

Take `COc1ccc(/C=C2\CN(C(=O)C(Cl)Cl)C/C(=C\c3ccc(OC)c(OC)c3)C2=O)cc1OC`: the GI50 was 224 nM and the TGI worked out at 0.621 µM.

`Cc1ccccc1CN1CC2=C(CCN(Cc3ccccc3)C2=O)N2CCN=C12`: the GI50 is 773 nM and the TGI was 6.83 µM.

On to `CCCCCCCCCCC(C[N+](C)(C)C/C=C/c1ccccc1)C(O)c1ccccc1` (stereo not given), for which the GI50 was 1370 nM and the TGI came to 3.06 µM.

Regarding `O=C(Nc1ccc(-n2cc(-c3ccncc3)c(-c3ccc(O)c(Cl)c3)n2)cc1)c1cc(Cl)cc(Cl)c1`, the GI50 was 3170 nM and the TGI was more than 32.5 µM.

For the compound `Nc1ccc(C(=O)c2ccc(N)c(Br)c2)cc1Br`, the GI50 was 248 nM and the TGI is 0.709 µM.

On to `CCN(CC)CCOc1ccc(Nc2ncc3cc(-c4ccc(O)cc4)c(=O)n(C)c3n2)cc1`, for which the GI50 was 3900 nM and the TGI is 24.2 µM.

Consider `C=C1CC[C@@]2(C#N)[C@H]3[C@H](CC[C@@H]2C)[C@@H](C)C[C@@H](CC(C)(C)C#N)[C@H]13`, for which the GI50 is 2790 nM and the TGI is 25.9 µM.

As to `CC([C@H]1CCC2C3CCC4C[C@@H](NC=O)CC[C@]4(C)C3CC[C@@]21C)N(C)C` (stereo not given in full), the GI50 was 1420 nM and the TGI was 3.73 µM.

`C/C=C(\C)C(=O)N[C@H]1[C@@H](OC(C)=O)C[C@]2(C)C3CC[C@@]4(C)C(CC[C@@H]4C(C)N(C)C)C3CCC2[C@H]1O` (stereo not given in full): the GI50 was 2020 nM and the TGI was found to be 9.67 µM.

As to `COc1ccc(/C=C\c2cc(OC)c(OC)c(OC)c2)cc1OC(=O)C(N)CCC(=O)O` (stereo not given), the TGI is more than 100 µM.

Take `CC(=O)Nc1cccc(-n2cnc3cc(-c4ccc(O)cc4)ccc32)c1`: the GI50 was 259 nM and the TGI amounted to 0.65 µM.

In the case of `CCCCCCCCCNCCCCCCCCC`, the GI50 is 1770 nM and the TGI was found to be 3.22 µM.

In the case of `COc1ccccc1N1CCN(C2=NN=C(c3cccc(Cl)c3)c3ccccc3C2)CC1`, the GI50 is 382 nM and the TGI is more than 100 µM.

Turning to `COc1cc(NC(=O)c2cc(OC)c3ccn(C)c3c2)cc2c1C[C@]1(C)CC[C@@H](O)C(C)(C)[C@H]1O2`, the GI50 was 6610 nM and the TGI is more than 100 µM.

For the compound `COc1c(C)c2c(c(O)c1C/C=C(\C)CCC(=O)OCCN1CCOCC1)C(=O)OC2`, the GI50 is 421 nM and the TGI was more than 100 µM.

Regarding `Nc1nc(Nc2ccc3c(c2)CC[C@@H](N2CCCC2)CC3)nn1-c1cc2c(nn1)-c1ccccc1CCC2`, the GI50 is 1750 nM and the TGI stood at 3.39 µM.

As to `COc1cc(Cl)cc(-c2nn(C(=O)NCCN3CCN(C)CC3)cc2-c2ccncc2)c1`, the GI50 was 10500 nM and the TGI is 49.9 µM.

As for `CCCCCNC(=O)[C@@H]1CCCN2C(=O)CC[C@H](NC(=O)[C@H](Cc3ccc(OP(=O)(O)O)cc3)NC(C)=O)C(=O)N12`, the GI50 is more than 25000 nM and the TGI is more than 25 µM.
